Patent US7462600B2, “Macrolides” (Pfizer Inc, priority 2004, dated 2008)
In brackets after ≈: the same amount, converted by molar mass. Read-outs that look alike come from different tables or passages of the source.

Assays:
Assay type in all cases: cell-based
[1] = system: Streptococcus pneumoniae 1175; details: microtiter broth dilution
Method in brief: (§1)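 Where available, resistant strains were tested alongside the susceptible parent they derive from. The MIC, determined by tray-based broth dilution and NCCLS M100-S14 interpretation, served as the comparison value.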

[2] = system: Streptococcus pneumoniae 1095; details: microtiter broth dilution
Method in brief: as §1

[3] = system: Haemophilus influenzae 1218; assay: MIC, microtiter broth dilution (NCCLS M100-S14), H. influenzae 1218 (susceptible)
Method in brief: as §1

[4] = system: Streptococcus pneumoniae 1016; assay: MIC, microtiter broth dilution (NCCLS M100-S14), S. pneumoniae 1016 (susceptible)
Method in brief: as §1

[5] = system: Streptococcus pyogenes 1079; assay: MIC, microtiter broth dilution (NCCLS M100-S14), S. pyogenes 1079 (ermB)
Method in brief: as §1

[6] = H. influenzae 1218 (susceptible)
[7] = S. pneumoniae 1016 (susceptible)

SMILES | MIC S. pneumo. 1175 ([1]; S. pneumoniae 1175 (mefA)) [µg/mL] | MIC S. pneumo. 1095 ([2]; S. pneumoniae 1095 (ermB)) [µg/mL] | MIC H. influenzae 1218 [3, 6] [µg/mL] | MIC S. pneumo. 1016 [4, 7] [µg/mL] | MIC S. pyogenes 1079 ([5]; S. pyogenes 1079 (ermB)) [µg/mL] | MIC S. pneumo. 1175 ([1]; Streptococcus pneumoniae 1175) [µg/mL] | MIC S. pneumo. 1095 ([2]; Streptococcus pneumoniae 1095) [µg/mL] | MIC H. influenzae 1218 ([3]; Haemophilus influenzae 1218) [µg/mL] | MIC S. pneumo. 1016 ([4]; Streptococcus pneumoniae 1016) [µg/mL] | MIC S. pyogenes 1079 ([5]; Streptococcus pyogenes 1079) [µg/mL]
CCC1OC(=O)C(C)C(=O)C(C)C(OC2OC(C)CC(N(C)C)C2O)C(C)(OC)CC(C)C(=O)C(C)C2N(CC3CCN(Cc4cccnc4OC)CC3)C(=O)OC12C (stereo not shown) [15.06] | 0.5 (≈ 0.602 µM) | >64.00 | 32 (≈ 38.5 µM) | <0.06 | >64.00 |  |  |  |  | 
CC[C@H]1OC(=O)[C@H](C)C(=O)[C@H](C)[C@@H](O[C@@H]2O[C@H](C)C[C@H](N(C)C)[C@H]2O)[C@](C)(OC)C[C@@H](C)C(=O)[C@H](C)[C@H]2N(CC3(C)CN(Cc4c[nH]nc4-c4ccccc4)C3)C(=O)O[C@]12C [6.09] |  |  |  |  |  | 0.25 (≈ 0.293 µM) | <0.06 | 0.5 (≈ 0.587 µM) | <0.06 | >64.00
CCC1OC(=O)C(C)C(=O)C(C)C(OC2OC(C)CC(N(C)C)C2O)C(C)(OC)CC(C)C(=O)C(C)C2N(C3CN(S(=O)(=O)c4c(C)noc4C)C3)C(=O)OC12C (stereo not shown) [Example 3.32, 3,5-dimethylisoxazole-4-sulfonyl] |  |  |  |  |  | 0.12 (≈ 0.145 µM) | 0.5 (≈ 0.605 µM) | 2 (≈ 2.42 µM) | <0.06 | 32 (≈ 38.7 µM)
CCC1OC(=O)C(C)C(=O)C(C)C(OC2OC(C)CC(N(C)C)C2O)C(C)(OC)CC(C)C(=O)C(C)C2N(C3CN(Cc4ccc(C#N)c5ncccc45)C3)C(=O)OC12C (stereo not shown) [Example 1.96, 3-descladinosyl-11,12-dideoxy-6-O-methyl-3-oxo-12,11-(oxycarbonyl-(1-(quinoline-8-carbonitrile-5-methyl)-azetidin-3-yl)-imino)-erythromycin A] |  |  |  |  |  | <0.063 | <0.063 | 1 (≈ 1.2 µM) | <0.063 | 1 (≈ 1.2 µM)
CCC1OC(=O)C(C)C(=O)C(C)C(OC2OC(C)CC(N(C)C)C2O)C(C)(OC)CC(C)C(=O)C(C)C2N(CC3CCN(C(=O)c4cc5ccccn5n4)C3)C(=O)OC12C (stereo not shown) [11.16] | 0.5 (≈ 0.595 µM) | 8 (≈ 9.52 µM) | 8 (≈ 9.52 µM) | <0.06 | >64.00 |  |  |  |  | 
CCC1OC(=O)C(C)C(=O)C(C)C(OC2OC(C)CC(N(C)C)C2O)C(C)(OC)CC(C)C(=O)C(C)C2N(C3CN(S(=O)(=O)c4cccc(-c5ncno5)c4)C3)C(=O)OC12C (stereo not shown) [Example 3.59] |  |  |  |  |  | 8 (≈ 9.13 µM) | 8 (≈ 9.13 µM) | 16 (≈ 18.3 µM) | <0.06 | 64 (≈ 73.1 µM)
CCC1OC(=O)C(C)C(=O)C(C)C(OC2OC(C)CC(N(C)C)C2O)C(C)(OC)CC(C)C(=O)C(C)C2N(CC3CN(C(=O)c4ccc5cnccc5n4)C3)C(=O)OC12C.O=CO (stereo not shown) [4.41] |  |  |  |  |  | <0.06 | 0.25 | 2 | <0.06 | >64.00
CCC1OC(=O)C(C)C(=O)C(C)C(OC2OC(C)CC(N(C)C)C2O)C(C)(OC)CC(C)C(=O)C(C)C2N(C3CN(S(=O)(=O)c4ccc(C)c5nccnc45)C3)C(=O)OC12C (stereo not shown) [Example 3.114, 3-descladinosyl-11,12-dideoxy-6-O-methyl-3-oxo-12,11-(oxycarbonyl-(1-(8-methylquinoxaline-5-sulfonyl)-azetidin-3-yl)-imino)-erythromycin A] |  |  |  |  |  | <0.063 | 0.125 (≈ 0.143 µM) | 0.25 (≈ 0.286 µM) | <0.063 | 1 (≈ 1.14 µM)
CCC1OC(=O)C(C)C(=O)C(C)C(OC2OC(C)CC(N(C)C)C2O)C(C)(OC)CC(C)C(=O)C(C)C2N(CC3CN(Cc4nc5ccccc5[nH]4)C3)C(=O)OC12C (stereo not shown) [4.16] |  |  |  |  |  | 0.25 (≈ 0.308 µM) | 2 (≈ 2.46 µM) | 0.5 (≈ 0.616 µM) | <0.06 | >64.00
CCC1OC(=O)C(C)C(=O)C(C)C(OC2OC(C)CC(N(C)C)C2O)C(C)(OC)CC(C)C(=O)C(C)C2N(C3CN(Cc4ccncc4F)C3)C(=O)OC12C (stereo not shown) [Example 1.78, 3-descladinosyl-11,12-dideoxy-6-O-methyl-3-oxo-12,11-(oxycarbonyl-(1-(3-fluoropyridine-4-methyl)-azetidin-3-yl)-imino)-erythromycin A] |  |  |  |  |  | <0.063 | <0.063 | 1 (≈ 1.29 µM) | <0.063 | 4 (≈ 5.15 µM)
CC[C@H]1OC(=O)[C@H](C)[C@@H](OC(=O)N2CCCC2c2cccc(F)c2)[C@H](C)[C@@H](O[C@@H]2O[C@H](C)C[C@H](N(C)C)[C@H]2O)[C@](C)(OC)C[C@@H](C)C(=O)[C@H](C)[C@H]2N(CC3CN(Cc4c[nH]c5ncccc45)C3)C(=O)O[C@]12C (stereo partly shown) [Example 5.05, 3-descladinosyl-11,12-dideoxy-6-O-methyl-12,11-(oxycarbonyl-(1-((1H-pyrrolo[2,3-b]pyridin-3-yl)-methyl)-(azetidin-3-yl)-methyl)-imino)-3-((2-(3-fluorophenyl)-pyrrolidine)-1-carbonyl)-erythromycin A] |  |  |  |  |  | 0.5 (≈ 0.497 µM) | 2 (≈ 1.99 µM) | 8 (≈ 7.96 µM) | <0.06 | 4 (≈ 3.98 µM)
CCC1OC(=O)C(C)C(=O)C(C)C(OC2OC(C)CC(N(C)C)C2O)C(C)(OC)CC(C)C(=O)C(C)C2N(C3CN(C(=O)NCc4ccc5ncccc5c4)C3)C(=O)OC12C (stereo not shown) [Example 2.10, N-((quinolin-6-yl)inethyl) aminocarbonyl] |  |  |  |  |  | 0.25 (≈ 0.293 µM) | 8 (≈ 9.39 µM) | 2 (≈ 2.35 µM) | <0.06 | >64.00
CCC1OC(=O)C(C)C(=O)C(C)C(OC2OC(C)CC(N(C)C)C2O)C(C)(OC)CC(C)C(=O)C(C)C2N(C3CN(S(=O)(=O)c4cccc(-c5ncco5)c4)C3)C(=O)OC12C (stereo not shown) [Example 3.65, 3-descladinosyl-11,12-dideoxy-6-O-methyl-3-oxo-12,11-(oxycarbonyl-(1-(3-(oxazol-2-yl)benzenesulfonyl)-azetidin-3-yl)-imino)-erythromycin A] |  |  |  |  |  | <0.06 | <0.06 | 0.12 (≈ 0.137 µM) | <0.06 | 1 (≈ 1.14 µM)
CCc1nn(C)c2ccc(S(=O)(=O)N3CC(N4C(=O)OC5(C)C(CC)OC(=O)C(C)C(=O)C(C)C(OC6OC(C)CC(N(C)C)C6O)C(C)(OC)CC(C)C(=O)C(C)C45)C3)cc12 (stereo not shown) [Example 3.117, 3-descladinosyl-11,12-dideoxy-6-O-methyl-3-oxo-12,11-(oxycarbonyl-(1-(3-ethyl-1-methyl-1H-indazole-5-sulfonyl)-azetidin-3-yl)-imino)-erythromycin A] |  |  |  |  |  | <0.063 | <0.063 | 1 (≈ 1.12 µM) | <0.063 | 1 (≈ 1.12 µM)
CCC1OC(=O)C(C)C(=O)C(C)C(OC2OC(C)CC(N(C)C)C2O)C(C)(OC)CC(C)C(=O)C(C)C2N(CC3CCN(Cc4ccc(-c5ccccn5)cc4)CC3)C(=O)OC12C (stereo not shown) [15.07] | 1 (≈ 1.14 µM) | >64.00 | 32 (≈ 36.5 µM) | <0.06 | >64.00 |  |  |  |  | 
CCC1OC(=O)C(C)C(=O)C(C)C(OC2OC(C)CC(N(C)C)C2O)C(C)(OC)CC(C)C(=O)C(C)C2N(CC3CCCN3C(=O)c3nc4cncnc4[nH]3)C(=O)OC12C (stereo not shown) [10.26] | 1 (≈ 1.19 µM) | <0.06 | 2 (≈ 2.38 µM) | <0.06 | >64.00 |  |  |  |  | 
CCC1OC(=O)C(C)C(=O)C(C)C(OC2OC(C)CC(N(C)C)C2O)C(C)(OC)CC(C)C(=O)C(C)C2N(CC3CCCN3C(=O)c3cc4ncccn4n3)C(=O)OC12C (stereo not shown) [10.53] | 0.12 (≈ 0.143 µM) | <0.06 | 1 (≈ 1.19 µM) | <0.06 | >64.00 |  |  |  |  | 
CCC1OC(=O)C(C)C(=O)C(C)C(OC2OC(C)CC(N(C)C)C2O)C(C)(OC)CC(C)C(=O)C(C)C2N(CC3CN(Cc4ccc5nccn5c4)C3)C(=O)OC12C (stereo not shown) [4.25] |  |  |  |  |  | 0.31 (≈ 0.382 µM) | 0.38 (≈ 0.468 µM) | 0.62 (≈ 0.764 µM) | <0.06 | 64 (≈ 78.8 µM)
CCC1OC(=O)C(C)C(=O)C(C)C(OC2OC(C)CC(N(C)C)C2O)C(C)(OC)CC(C)C(=O)C(C)C2N(CC3CCCN3C(=O)c3nccc4ccccc34)C(=O)OC12C.O=CO (stereo not shown) [10.17] | 0.12 | <0.06 | 0.5 | <0.06 | >64.00 |  |  |  |  | 
CCC1OC(=O)C(C)C(=O)C(C)C(OC2OC(C)CC(N(C)C)C2O)C(C)(OC)CC(C)C(=O)C(C)C2N(C3CN(Cc4c(C)cnc5ncccc45)C3)C(=O)OC12C (stereo not shown) [Example 1.99, 3-descladinosyl-11,12-dideoxy-6-O-methyl-3-oxo-12,11-(oxycarbonyl-(1-(3-methyl-1,8-naphthyridine-4-methyl)-azetidin-3-yl)-imino)-erythromycin A] |  |  |  |  |  | <0.063 | <0.063 | 1 (≈ 1.21 µM) | <0.063 | 0.5 (≈ 0.607 µM)
